Source: publication PMC10285260, “Processive kinetics in the three-step lanosterol 14α-demethylation reaction catalyzed by human cytochrome P450 51A1” (The Journal of Biological Chemistry, 2023)
Read-outs that look alike come from different tables or passages of the source.

Key:
human P450 51A1 [1] = target: T1, human P450 51A1 (Homo sapiens, UniProt Q16850); assay: Stopped-flow koff measurements of P450 51A1-sterol complexes with ketoconazole trap; type: binding; parameters: made in house; host or cells: Escherichia coli; details: 23 °C, 10 μM ketoconazole trap, 1 μM P450 51A1
T1 sequence (Q16850 1-509): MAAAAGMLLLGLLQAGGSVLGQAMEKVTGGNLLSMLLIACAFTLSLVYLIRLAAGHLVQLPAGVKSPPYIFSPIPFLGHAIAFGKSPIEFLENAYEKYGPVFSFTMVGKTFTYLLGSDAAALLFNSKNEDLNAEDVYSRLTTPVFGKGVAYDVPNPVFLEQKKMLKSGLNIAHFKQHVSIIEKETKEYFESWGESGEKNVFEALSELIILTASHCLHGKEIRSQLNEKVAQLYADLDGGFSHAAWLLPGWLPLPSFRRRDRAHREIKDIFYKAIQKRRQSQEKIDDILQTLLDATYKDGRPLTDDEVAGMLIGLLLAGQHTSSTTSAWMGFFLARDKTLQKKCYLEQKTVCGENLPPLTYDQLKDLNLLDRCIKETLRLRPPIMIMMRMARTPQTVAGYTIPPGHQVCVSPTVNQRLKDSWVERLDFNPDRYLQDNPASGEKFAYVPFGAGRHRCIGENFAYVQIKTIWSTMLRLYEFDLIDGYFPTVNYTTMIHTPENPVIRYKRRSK
Protocol: All assays were done at 23 °C in an OLIS-RSM 1000 stopped-flow spectrophotometer, collecting data every 1 ms over a range of 332 to 565 nm with slit widths of 1.24 mm (8 nm bandpass) and gratings with 400 lines/mm and 500 nm blaze. One syringe contained 20 μM ketoconazole dissolved in 100 mM potassium phosphate buffer (pH 7.4). In a preliminary experiment in which this was mixed with an equal volume of 2 μM P450 51A1 (same buffer), the observed rate of binding (ΔA430) was 25 s^−1.
P450 51A1 (2 μM) was premixed with an equivalent concentration of each of the sterols (in HPCD). Each of these solutions was placed in a drive syringe and rapidly mixed with 20 μM ketoconazole (yielding final concentrations of 1 μM P450 51A1 and 10 μM ketoconazole). The rate of the ΔA430-A390 change was used as the koff rate, that is, the rate at which the sterol left the P450 and allowed it to bind to the trap ligand ketoconazole.

human P450 51A1 [2] = assay: Kinetic modeling (KinTek Explorer) of the single-turnover time course
Description: The initial koff rate constants used in fitting were the koff rates measured in the stopped-flow trap experiments (Fig. 9). All three oxidation reactions are irreversible, and thus k-2, k-4, and k-6 were set to zero.
Data were imported into KinTek Explorer software (v. 11.01, KinTek, https://kintekcorp.com/software) ([63], [64]) as txt files and processed using an Apple computer (operating system 11.6.2).

human P450 51A1 [3] = target: T1, human P450 51A1; assay: Single-turnover rapid-quench kinetics of [3-3H]-dihydrolanosterol oxidation (radio-HPLC); type: biochemical; parameters: made in house; host or cells: Escherichia coli
Protocol: All products were separated and quantified by radio-HPLC (Fig. S24).
Samples (held at 4 °C) were injected (45 μl) onto a Nova-Pak 3.9 mm × 150 mm (4 μm) octadecylsilane (C18) HPLC column (held at 23 °C). The products were separated at a flow rate of 1.0 ml min^−1 using an isocratic mobile phase composed of CH3CN (only) as was done for the LC-UV assays (above). The eluate from the column was mixed (1:2, v-v) with FlowLogic U scintillation cocktail, and radioactivity (^3H) was detected on a β-RAM Model 5 system (IN/US, LabLogic) (Fig. S24). Product formation was assessed as the relative contribution of each peak (in CPM) to the summed peak area of substrate and product(s).
The single-turnover experiments were performed using a KinTek rapid quench-flow apparatus (KinTek). This machine functions by forcing equal volumes (∼19 μl) of two separate solutions into a central mixing chamber, where the components are allowed to incubate for a predetermined period of time before an excess volume of quench solution (∼160 μl) stops the reaction and expels the mixture from the apparatus. […] After the predetermined incubation period, the reaction (37 °C) was quenched with HCl (1 M), and the mixture (∼200 μl) was collected into vials. The products of five identical reactions (time points) were combined and were extracted into CH2Cl2 (5 ml). An aliquot (4 ml) of the lower (organic) layer was removed into a fresh vial, and the extraction was repeated to maximize sample recovery. The pooled organic fraction (∼8 ml) was brought to dryness under a stream of N2 gas, and the residue was redissolved in 60 μl of CH3OH and transferred to LC vials for analysis.

human P450 51A1 [4] = target: T1, human P450 51A1; assay: Spectral (difference spectroscopy) Kd estimates of P450 51A1-sterol complexes; type: binding; parameters: made in house; host or cells: Escherichia coli
Protocol: Kd values were estimated by difference spectroscopy. P450 51A1 (1.0 μM) was in each of two glass cuvettes (in 100 mM potassium phosphate buffer, pH 7.4) and a baseline was recorded (OLIS-Amino DW2a). Aliquots of a solution of each sterol–HPCD complex were added to the sample cuvette and an equivalent amount of HPCD was added to the reference cuvette, and spectra were recorded. The time between the collection of individual spectra was ∼3 min. The maximum absorbance difference (usually ΔA390-A418) was plotted versus the nominal concentration of added sterol, and the data were fit to hyperbolae in GraphPad Prism software (GraphPad, https://www.graphpad.com), using a quadratic equation to correct the ligand concentration for the enzyme-bound concentration (used as Y=B+(A/2)∗(1/E)∗((Kd+E+X)-sqrt((Kd + E+X)^∧2-(4∗E∗X)) in Prism software). The linear regression fits include the internal error estimates (SE).

human P450 51A1 [5] = target: T1, human P450 51A1; assay: Steady-state LC-UV assay of sterol oxidation to dihydro FF-MAS by reconstituted P450 51A1; details: oxidation to dihydro FF-MAS (epi-dihydro FF-MAS from epi substrate), 37 °C
Protocol: Steady-state incubations (500 μl) were generally done at 37 °C with 0.025 μM P450 51A1, 0.10 μM NADPH-P450 reductase, 100 μM L-α-dilauroyl-sn-glycero-3-phosphocholine, 50 mM potassium phosphate buffer (pH 7.4), 10% (v/v) glycerol, and an indicated concentration of each sterol (in 45% (w/v) HPCD). […] The sterols (stored at 4 °C) were prepared as described above and were heated to 37 °C and sonicated prior to use. Sterol working stocks were diluted in HPCD to ensure a constant concentration of cyclodextrin in each reaction. […] Accordingly, all reactions were done with this concentration of glycerol.
Reactions were preincubated (5 min, 37 °C) prior to initiation with an NADPH-regenerating system (0.5 mM NADP^+, 10 mM glucose 6-phosphate, and 2 μg ml^−1 glucose 6-phosphate dehydrogenase) ([60]) and were stopped after 5 min with the addition of CH2Cl2 (5 ml). (The NADPH-generating system, in addition to lower cost than NADPH, drives the reaction to avoid inhibition of the reductase by accumulated NADP^+). For the 14α-aldehyde, the times of preincubation and reaction were reduced (to 2 min and 1 min, respectively). The quenched mixture was centrifuged (2000g, 5 min), and 4 ml of the bottom (organic) layer was transferred to vials and brought to dryness under a stream of N2 gas. The dried residue was resuspended in CH3OH (100 μl) and was analyzed by UPLC using a 2.1 mm × 100 mm (1.7 μm) octadecylsilane (C18) column (held at 25 °C) and a Waters Acquity UPLC system. Samples (4 °C) were injected (10 μl) at a flow rate of 0.20 ml min^−1 using an isocratic mobile phase of CH3CN (only). The product (FF-MAS) was detected using a Waters Acquity photodiode array detector set at 250 nm (Fig. 4B). Data were processed using the MassLynx software (http://www.waters.com/waters/en_US/MassLynx-Mass-Spectrometry-Software-/nav.htm?cid=513164&locale=en_US), and the amount of product formed was calculated by comparison to a twelve-point dihydro FF-MAS standard curve. Determination of kcat and Km for each reaction was carried out by fitting the data to a Michaelis–Menten hyperbola, which was done using GraphPad Prism.
Incubations were run in triplicate, and the mean values (±SD) were calculated and plotted. The linear regression fits include the Prism error estimates for internal fitting (SE).

human P450 51A1 [6] = target: T1, human P450 51A1; assay: Stopped-flow rate of ketoconazole binding to P450 51A1; parameters: made in house; host or cells: Escherichia coli; details: 10 μM ketoconazole, 1 μM P450 51A1 final
[7] = substrate: CC(C)CCCC(C)[C@H]1CC[C@@]2(CO)C3=C(CC[C@]12C)[C@@]1(C)CC[C@H](O)C(C)(C)C1CC3; assay: purified protein, by the assay type; details: other: oxidation to dihydro FF-MAS (epi-dihydro FF-MAS from epi substrate), 37 °C, pH 7.4
Protocol: (§1) Steady-state incubations (500 μl) were generally done at 37 °C with 0.025 μM P450 51A1, 0.10 μM NADPH-P450 reductase, 100 μM L-α-dilauroyl-sn-glycero-3-phosphocholine, 50 mM potassium phosphate buffer (pH 7.4), 10% (v/v) glycerol, and an indicated concentration of each sterol (in 45% (w/v) HPCD). Due to the high turnover rate of the 14α-aldehyde, the P450 and NADPH-P450 reductase concentrations were reduced (to 0.01 μM and 0.04 μM, respectively), and the reaction volume was increased (to 1 ml) to maximize sensitivity. The sterols (stored at 4 °C) were prepared as described above and were heated to 37 °C and sonicated prior to use. Sterol working stocks were diluted in HPCD to ensure a constant concentration of cyclodextrin in each reaction. […] Accordingly, all reactions were done with this concentration of glycerol.
(§2) Reactions were preincubated (5 min, 37 °C) prior to initiation with an NADPH-regenerating system (0.5 mM NADP^+, 10 mM glucose 6-phosphate, and 2 μg ml^−1 glucose 6-phosphate dehydrogenase) ([60]) and were stopped after 5 min with the addition of CH2Cl2 (5 ml). […] For the 14α-aldehyde, the times of preincubation and reaction were reduced (to 2 min and 1 min, respectively). The quenched mixture was centrifuged (2000g, 5 min), and 4 ml of the bottom (organic) layer was transferred to vials and brought to dryness under a stream of N2 gas. The dried residue was resuspended in CH3OH (100 μl) and was analyzed by UPLC using a 2.1 mm × 100 mm (1.7 μm) octadecylsilane (C18) column (held at 25 °C) and a Waters Acquity UPLC system. Samples (4 °C) were injected (10 μl) at a flow rate of 0.20 ml min^−1 using an isocratic mobile phase of CH3CN (only). The product (FF-MAS) was detected using a Waters Acquity photodiode array detector set at 250 nm (Fig. 4B). Data were processed using the MassLynx software (http://www.waters.com/waters/en_US/MassLynx-Mass-Spectrometry-Software-/nav.htm?cid=513164&locale=en_US), and the amount of product formed was calculated by comparison to a twelve-point dihydro FF-MAS standard curve. Determination of kcat and Km for each reaction was carried out by fitting the data to a Michaelis–Menten hyperbola, which was done using GraphPad Prism.

[8] = substrate: CC(C)CCCC(C)[C@H]1CC[C@@]2(C=O)C3=C(CC[C@]12C)[C@@]1(C)CC[C@H](O)C(C)(C)C1CC3; assay: purified protein, by the assay type; details: other: oxidation to dihydro FF-MAS (epi-dihydro FF-MAS from epi substrate), 37 °C, pH 7.4
Protocol: as §1, §2

[9] = substrate: CC(C)CCCC(C)[C@H]1CC[C@@]2(C)C3=C(CC[C@]12C)[C@@]1(C)CC[C@H](O)C(C)(C)C1CC3; assay: purified protein, by the assay type; details: pH 7.4
[10] = substrate: CC(C)CCCC(C)[C@H]1CC[C@@]2(C)C3=C(CC[C@]12C)[C@@]1(C)CC[C@@H](O)C(C)(C)C1CC3; assay: purified protein, by the assay type; details: other: oxidation to dihydro FF-MAS (epi-dihydro FF-MAS from epi substrate), 37 °C, pH 7.4
Protocol: as §1, §2

CC(C)CCC[C@@H](C)[C@H]1CC=C2C3=C(CC[C@@]21C)[C@@]1(C)CC[C@H](O)C(C)(C)[C@@H]1CC3 [dihydro FF-MAS, 24,25-dihydro FF-MAS]
koff (human P450 51A1 [1]): 2 s⁻¹
k^+ of sterol binding to P450 51A1 (kon) used for fitting (human P450 51A1 [2]; all kon set at this value): 2e+06 M⁻¹ s⁻¹
k^- of sterol binding to P450 51A1 (koff) used for fitting (human P450 51A1 [2]; optimized model): 2.0 s⁻¹
concentration in single-turnover reaction (human P450 51A1 [3]; time 0.05 s, start 7 µM dihydrolanosterol): 0 µM
concentration in single-turnover reaction (human P450 51A1 [3]; time 0.1 s): 0 µM
concentration in single-turnover reaction (human P450 51A1 [3]; time 0.15 s): 0.2821 µM
concentration in single-turnover reaction (human P450 51A1 [3]; time 0.2 s): 0.4249 µM
concentration in single-turnover reaction (human P450 51A1 [3]; time 0.3 s): 0.7518 µM
concentration in single-turnover reaction (human P450 51A1 [3]; time 0.4 s): 1.2019 µM
concentration in single-turnover reaction (human P450 51A1 [3]; time 0.6 s): 2.506 µM
concentration in single-turnover reaction (human P450 51A1 [3]; time 0.8 s): 3.0184 µM
concentration in single-turnover reaction (human P450 51A1 [3]; time 1 s): 4.0537 µM
concentration in single-turnover reaction (human P450 51A1 [3]; time 1.2 s): 4.494 µM
concentration in single-turnover reaction (human P450 51A1 [3]; time 1.6 s): 4.8181 µM
concentration in single-turnover reaction (human P450 51A1 [3]; time 2 s): 5.2031 µM
concentration in single-turnover reaction (human P450 51A1 [3]; time 3 s): 5.8863 µM
concentration in single-turnover reaction (human P450 51A1 [3]; time 4 s): 6.6353 µM
concentration in single-turnover reaction (human P450 51A1 [3]; time 7 s): 7 µM
Kd (human P450 51A1 [4]; 1.0 μM P450 51A1, quadratic fit, read-out: Kd): 1400 nM

CC(C)CCCC(C)[C@H]1CC[C@@]2(C)C3=C(CC[C@]12C)[C@@]1(C)CC[C@@H](O)C(C)(C)C1CC3 (stereo partly drawn) [epi-dihydrolanosterol, epi-Dihydrolanosterol]
kcat (human P450 51A1 [5]): 0.42 ± 0.03 s⁻¹
Kd (human P450 51A1 [4]): 14 nM

CC(=O)N1CCN(c2ccc(OCC3COC(Cn4ccnc4)(c4ccc(Cl)cc4Cl)O3)cc2)CC1 (centres unmarked) [ketoconazole]
pseudo-first-order observed rate of binding (human P450 51A1 [6]): 25 s⁻¹

B1: human P450 51A1 (Homo sapiens) (protein)
chain: T1 sequence (Q16850 1-509)
Km [7]: 4.3 ± 0.4 µM
kcat [7]: 0.67 ± 0.03 s⁻¹
Km [8]: 5.4 ± 0.7 µM
kcat [8]: 1.7 ± 0.1 s⁻¹
kcat/Km ([9]; other: conversion to dihydro FF-MAS, isotope effect comparison): 1.3 (±0.2) × 10^5 M^−1 s^−1
Km ([9]; other: oxidation to dihydro FF-MAS (epi-dihydro FF-MAS from epi substrate), 37 °C): 5.0 ± 0.6 µM
Km [10]: 2.0 ± 0.4 µM
